Assays:
[1] = xn = mol fraction of the nth substance listed; conditions: 298.15 K, 101 kPa, Liquid
[2] = excess molar enthalpy (molar enthalpy of mixing); xn = mol fraction of the nth substance listed; conditions: 298.15 K, 101 kPa, Liquid, Calvet calorimetry

CCOC=O [ethyl methanoate] + ClCCCl
Conditions | excess molar enthalpy [kcal/mol] | mass density [kg/m3]
[1], x1 = 0.0571 | – | 1226.06
[1], x1 = 0.1212 | – | 1204.8
[1], x1 = 0.1793 | – | 1185.79
[1], x1 = 0.2317 | – | 1168.78
[1], x1 = 0.2946 | – | 1148.35
[1], x1 = 0.355 | – | 1128.9
[1], x1 = 0.4144 | – | 1109.76
[1], x1 = 0.465 | – | 1093.66
[1], x1 = 0.5294 | – | 1073.24
[1], x1 = 0.5889 | – | 1054.49
[1], x1 = 0.6485 | – | 1035.88
[1], x1 = 0.7065 | – | 1017.61
[1], x1 = 0.7648 | – | 999.52
[1], x1 = 0.8239 | – | 981.06
[1], x1 = 0.8823 | – | 962.96
[1], x1 = 0.9345 | – | 946.9
[2], x1 = 0.0533 | -0.0075 | –
[2], x1 = 0.117 | -0.0173 | –
[2], x1 = 0.1872 | -0.0268 | –
[2], x1 = 0.2551 | -0.0353 | –
[2], x1 = 0.3201 | -0.0432 | –
[2], x1 = 0.3798 | -0.05 | –
[2], x1 = 0.4359 | -0.0549 | –
[2], x1 = 0.4835 | -0.0584 | –
[2], x1 = 0.5094 | -0.0598 | –
[2], x1 = 0.5591 | -0.0598 | –
[2], x1 = 0.6134 | -0.0574 | –
[2], x1 = 0.6735 | -0.0546 | –
[2], x1 = 0.7374 | -0.0485 | –
[2], x1 = 0.8 | -0.0397 | –
[2], x1 = 0.8714 | -0.0283 | –
[2], x1 = 0.9368 | -0.0146 | –

CCCOC=O [propyl methanoate] + ClCCCCCl
Conditions | excess molar enthalpy [kcal/mol] | mass density [kg/m3]
[1], x1 = 0.0695 | – | 1119.11
[1], x1 = 0.1347 | – | 1106.03
[1], x1 = 0.1987 | – | 1092.92
[1], x1 = 0.2624 | – | 1079.78
[1], x1 = 0.3279 | – | 1066.03
[1], x1 = 0.3884 | – | 1053.07
[1], x1 = 0.4509 | – | 1039.59
[1], x1 = 0.5061 | – | 1027.51
[1], x1 = 0.5671 | – | 1013.93
[1], x1 = 0.6204 | – | 1001.93
[1], x1 = 0.6808 | – | 988.13
[1], x1 = 0.7363 | – | 975.18
[1], x1 = 0.7901 | – | 962.5
[1], x1 = 0.8426 | – | 950.01
[1], x1 = 0.8965 | – | 936.97
[1], x1 = 0.9466 | – | 924.57
[2], x1 = 0.0711 | 0.00681 | –
[2], x1 = 0.1446 | 0.00982 | –
[2], x1 = 0.2182 | 0.0105 | –
[2], x1 = 0.2908 | 0.00652 | –
[2], x1 = 0.3554 | 0.00213 | –
[2], x1 = 0.4191 | -0.00306 | –
[2], x1 = 0.4755 | -0.007 | –
[2], x1 = 0.5267 | -0.0106 | –
[2], x1 = 0.5668 | -0.0133 | –
[2], x1 = 0.6196 | -0.0168 | –
[2], x1 = 0.681 | -0.0186 | –
[2], x1 = 0.7427 | -0.0172 | –
[2], x1 = 0.8085 | -0.0143 | –
[2], x1 = 0.875 | -0.00939 | –
[2], x1 = 0.939 | -0.00533 | –

CCCOC=O [propyl methanoate] + ClCCCCl
Conditions | excess molar enthalpy [kcal/mol] | mass density [kg/m3]
[1], x1 = 0.0612 | – | 1161.75
[1], x1 = 0.1204 | – | 1145.46
[1], x1 = 0.1775 | – | 1129.76
[1], x1 = 0.2355 | – | 1113.91
[1], x1 = 0.2944 | – | 1097.92
[1], x1 = 0.3527 | – | 1082.1
[1], x1 = 0.4109 | – | 1066.46
[1], x1 = 0.4695 | – | 1050.7
[1], x1 = 0.5286 | – | 1034.93
[1], x1 = 0.5863 | – | 1019.65
[1], x1 = 0.6459 | – | 1003.85
[1], x1 = 0.7044 | – | 988.35
[1], x1 = 0.763 | – | 972.97
[1], x1 = 0.8214 | – | 957.74
[1], x1 = 0.8796 | – | 942.43
[1], x1 = 0.9386 | – | 927.1
[2], x1 = 0.0618 | -0.000717 | –
[2], x1 = 0.1342 | -0.00406 | –
[2], x1 = 0.2092 | -0.00951 | –
[2], x1 = 0.2838 | -0.0162 | –
[2], x1 = 0.3515 | -0.0231 | –
[2], x1 = 0.4148 | -0.0297 | –
[2], x1 = 0.4714 | -0.0358 | –
[2], x1 = 0.503 | -0.0397 | –
[2], x1 = 0.5539 | -0.0461 | –
[2], x1 = 0.6084 | -0.0502 | –
[2], x1 = 0.6696 | -0.0491 | –
[2], x1 = 0.7356 | -0.0441 | –
[2], x1 = 0.8024 | -0.0365 | –
[2], x1 = 0.8727 | -0.0258 | –
[2], x1 = 0.9394 | -0.0134 | –

ClCCCCCl [1,4-dichlorobutane] + CCCCOC=O
Conditions | excess molar enthalpy [kcal/mol] | mass density [kg/m3]
[1], x2 = 0.0624 | – | 1118.28
[1], x2 = 0.1208 | – | 1103.88
[1], x2 = 0.1776 | – | 1089.9
[1], x2 = 0.2372 | – | 1075.3
[1], x2 = 0.346 | – | 1048.8
[1], x2 = 0.4096 | – | 1033.38
[1], x2 = 0.4679 | – | 1019.27
[1], x2 = 0.5213 | – | 1006.41
[1], x2 = 0.6434 | – | 977.11
[1], x2 = 0.7039 | – | 962.64
[1], x2 = 0.7624 | – | 948.68
[1], x2 = 0.821 | – | 934.76
[1], x2 = 0.8802 | – | 920.71
[1], x2 = 0.9398 | – | 906.62
[2], x2 = 0.0614 | -0.00275 | –
[2], x2 = 0.1294 | -0.00724 | –
[2], x2 = 0.1998 | -0.0131 | –
[2], x2 = 0.2674 | -0.0218 | –
[2], x2 = 0.3309 | -0.0293 | –
[2], x2 = 0.3925 | -0.039 | –
[2], x2 = 0.4407 | -0.0473 | –
[2], x2 = 0.4897 | -0.0533 | –
[2], x2 = 0.5404 | -0.0542 | –
[2], x2 = 0.5969 | -0.0539 | –
[2], x2 = 0.6592 | -0.0513 | –
[2], x2 = 0.7249 | -0.0461 | –
[2], x2 = 0.795 | -0.0386 | –
[2], x2 = 0.8656 | -0.028 | –
[2], x2 = 0.9356 | -0.0149 | –

ClCCCCCCl [1,5-dichloropentane] + CCOC=O
Conditions | excess molar enthalpy [kcal/mol] | mass density [kg/m3]
[1], x2 = 0.0955 | – | 1084.27
[1], x2 = 0.1752 | – | 1074.48
[1], x2 = 0.2534 | – | 1064.51
[1], x2 = 0.3284 | – | 1054.28
[1], x2 = 0.3985 | – | 1044.1
[1], x2 = 0.4628 | – | 1034.31
[1], x2 = 0.5327 | – | 1023.03
[1], x2 = 0.5897 | – | 1013.34
[1], x2 = 0.6456 | – | 1003.36
[1], x2 = 0.698 | – | 993.61
[1], x2 = 0.7473 | – | 983.9
[1], x2 = 0.7941 | – | 974.37
[1], x2 = 0.8401 | – | 964.52
[1], x2 = 0.8829 | – | 954.89
[1], x2 = 0.9235 | – | 945.49
[1], x2 = 0.9625 | – | 936.01
[2], x2 = 0.1024 | 0.0337 | –
[2], x2 = 0.2043 | 0.0534 | –
[2], x2 = 0.2974 | 0.0705 | –
[2], x2 = 0.3848 | 0.0801 | –
[2], x2 = 0.4598 | 0.0825 | –
[2], x2 = 0.5273 | 0.081 | –
[2], x2 = 0.5845 | 0.0767 | –
[2], x2 = 0.6305 | 0.071 | –
[2], x2 = 0.6809 | 0.062 | –
[2], x2 = 0.7286 | 0.0551 | –
[2], x2 = 0.7798 | 0.0454 | –
[2], x2 = 0.8289 | 0.0355 | –
[2], x2 = 0.8791 | 0.0261 | –
[2], x2 = 0.9215 | 0.0166 | –
[2], x2 = 0.9634 | 0.0075 | –

CCCCCOC=O [pentyl methanoate] + ClCCCCCCCl
Conditions | excess molar enthalpy [kcal/mol] | mass density [kg/m3]
[1], x1 = 0.0731 | – | 1051.9
[1], x1 = 0.1352 | – | 1041.69
[1], x1 = 0.1967 | – | 1031.48
[1], x1 = 0.3212 | – | 1010.41
[1], x1 = 0.3822 | – | 999.88
[1], x1 = 0.4398 | – | 989.79
[1], x1 = 0.558 | – | 968.7
[1], x1 = 0.6153 | – | 958.24
[1], x1 = 0.6723 | – | 947.69
[1], x1 = 0.7282 | – | 937.22
[1], x1 = 0.7836 | – | 926.72
[1], x1 = 0.839 | – | 916.1
[1], x1 = 0.893 | – | 905.58
[1], x1 = 0.9462 | – | 895.13
[2], x1 = 0.0697 | -0.00265 | –
[2], x1 = 0.162 | -0.00595 | –
[2], x1 = 0.2559 | -0.0114 | –
[2], x1 = 0.3406 | -0.0172 | –
[2], x1 = 0.4168 | -0.0225 | –
[2], x1 = 0.4813 | -0.0253 | –
[2], x1 = 0.4927 | -0.0259 | –
[2], x1 = 0.5399 | -0.0275 | –
[2], x1 = 0.5935 | -0.0264 | –
[2], x1 = 0.6653 | -0.0239 | –
[2], x1 = 0.731 | -0.0207 | –
[2], x1 = 0.8005 | -0.0167 | –
[2], x1 = 0.8731 | -0.0112 | –
[2], x1 = 0.9459 | -0.00559 | –

— the NIST ThermoML archive (doi:10.1016/j.jct.2006.10.008)
